From patent publication US9023853B2, “Janus kinase 2 (JAK2) inhibitor for the treatment of lupus” (Cephalon, Inc., priority 2010, dated 2015)

Test system: MRL/lpr mice
Assay: Lymphomegaly, splenomegaly and spleen leukocyte counts in MRL/lpr lupus model
Format: in vivo, mouse
Conditions: for total spleen leukocyte counts compared to vehicle: p<0.05; for mice without lymphomegaly: vehicle 0%
Description: Six week old lupus-prone, female, MRL/lpr (Jackson Labs, #000485) and non-lupus prone control MRL/MpJ (Jackson Labs, #000486) mice were obtained from Jackson Laboratories (Bar Harbor, Me.) at 6-weeks of age. Spontaneous SLE-prone NZBWF1/J (NZM) (catalog no. 100008) female mice and non-lupus prone (within time from of experiment) NZW/LacJ (catalog no. 001058) female mice were obtained from Jackson Laboratories (Bar Harbor, Me.) at 15-weeks of age. All mice were maintained on a […] light/dark cycle, with food and water available ad libitum. All experimental animal procedures were approved by and in accordance to the regulations of the Institutional Animal Care and Use Committee (IACUC) of Cephalon, Inc; approved IACUC protocol #03-040 and #03-03-041. […] Due to this impaired tolerance mechanism, a percentage of all T and B cells that enter the periphery have a high likelihood of responding to self protein/tissues and thus initiate autoimmunity early in life. The MRL/lpr model mice develop several chronic inflammatory disease-like symptoms that are characteristic of early and late lupus including the generation of anti-nuclear antibodies, arthritis, dermatological manifestations, immunocomplex-mediated glomerulonephritis leading to proteinuria and eventual death. Lesser characterized phenomenon are CNS and cardiac manifestations, both of which are more common in humans. […] Mortality is higher in the females and occurs around 25 weeks of age, renal disease includes glomerulonephritis, glomerular infiltrates, sclerosis and vasculitis. Both splenomegaly and lymphomegaly associated with dermatitis can also be observed. […] Mice were tracked on an individual basis.

SMILES: CN1CCN(c2cccc(Nc3nc4c(-c5ccc(S(C)(=O)=O)cc5)cccn4n3)c2)CC1 [COMPOUND A, [8-(4-methanesulfonyl-phenyl)-[1,2,4]triazolo[1,5-a]pyridin-2-yl]-[3-(4-methyl-piperazin-1-yl)-phenyl]-amine]
- spleen mass decrease vs. vehicle (55 mg/kg p.o. b.i.d.): 49.4%
- total spleen leukocyte counts compared to vehicle (55 mg/kg p.o. b.i.d.): reduced total leukocyte counts
- mice without lymphomegaly (55 mg/kg p.o. b.i.d.): 100%
- spleen mass decrease vs. vehicle (100 mg/kg p.o. b.i.d.): 74.1%
- spleen mass relative to non-lupus control animal (MRL/Mp; 98 mg) (100 mg/kg p.o. b.i.d.): decreased spleen mass to the level of a non-lupus control animal
- total spleen leukocyte counts compared to vehicle (100 mg/kg p.o. b.i.d.): reduced total leukocyte counts
- mice without lymphomegaly (100 mg/kg p.o. b.i.d.): 100%
